Columns and labels:
CD36 = assay: Scavenger receptor expression by flow cytometry, CD36; format: cell-based, murine
Method: Cell surface CD36 and SR-A were measured by flow cytometry using CD36 (BD Biosciences Pharmingen, San Diego, Calif.) and CD204 (Serotec, Oxford, UK) specific monoclonal antibodies. See Liao et al. (2000) Arterioscler. Thromb. Vasc. Biol. 20: 1968-75; Hu et al. (1996) Blood 87: 2020-28. Murine macrophage J774A.1 cells were serum-starved overnight in media with 0.5% BSA. Cells (1×10^6) treated with cholesterol ozonation products or cholesterol ozonation product complexed with LDL for specified times were then washed twice with PBS. After harvesting the cells by scraping, they were fixed with 6% paraformaldehyde for 20 min; Cells were then resuspended in PBS containing 2% heat-inactivated FCS, 0.05% NaN3 and appropriate primary antibody, antibody conjugate or isotype control (1:100 dilution) and incubated on ice for 30 min. Expression of either CD36 or SR-A was determined with CD36 (BD Biosciences Pharmingen, San Diego, Calif.) and CD204 (Serotec, Oxford, U.K.) specific monoclonal antibodies, respectively. After washing off the primary antibody, secondary antibodies were added, cells were washed again, then analyzed on a FACS calibur 2 (Becton Dickinson, Sparks, Md.) flow cytometer and analyzed by CellQuant software. Results were expressed as mean fluorescence intensity±standard error of the mean (SEM) of at least duplicate determinations. Significance was determined using a student two-tail t test, with (*) indicating p<0.05, and (**) indicating p<0.01 versus the control.

[1] = system: murine macrophage J774A.1; assay: Modified Boyden chamber migration (chemotaxis) assay; format: cell-based
Method: Chemotaxis and invasion assays were performed using a modified Boyden chamber migration assay. Zwirner et al. (1998) Eur. J. Immunol. 28: 1570-77; Wilkinson (1988) Methods Enzymol. 162: 38-50. Assays were set up on MultiScreen-MIC plates (Millipore, Billerica, Mass., USA) with polyvinylpyrrolidone-free polycarbonate membranes (5 μm pore size). Cells (murine macrophage J774A.1) were washed and resuspended in serum-free DMEM containing 0.2% BSA at 1×10^6 cells/ml. Fifty microliters of cells were added to the upper wells and 150 μl of chemoattractant in DMEM/0.2% BSA were added to the lower wells of the microchamber. Incubation time was for 4 h at 37° C. in an 8% CO2 atmosphere. After swiping cells off the upper side of the membrane, cells on the lower side were visualized by either staining and phase contrast microscopy, or fluorescence. Cells that had adhered to the membrane were stained using a DiffQuik staining kit (Dade Behring, Newark, Del.). Each experiment was performed in triplicate and the numbers of migrating cells were counted in five fields at ×200. Cells harvested with PBS-EDTA for fluorescent labeling were washed two times with PBS, then resuspended in serum-free medium containing calcein AM (5 μM). Cells were incubated for 30 min (37° C., 5% CO2) with gentle intermittent mixing. Calcein-labeled cells were washed twice, and calcein fluorescence ([…]) was measured using a SPECTRAmax™ GEMINI dual-scanning microplate spectrofluorometer. Fluorescence measurements were compared to a standard curve, generated by dilution of cells in PBS/BSA in 100 μl, dispensed into 96-well plates. Fluorescence was quantified as described above.

VCAM-1 (CD106) = assay: Endothelial adhesion molecule expression by ELISA, VCAM-1; format: cell-based, human
Method: (§1) Endothelial cell surface adhesion molecule expression was measured by ELISA, using anti-human CD54 (ICAM-1), CD106 (VCAM-1) and CD62E (E-Selectin) antibodies (Leinco Technologies, Inc., St. Louis, Mo.). The ELISA method was modified from previously described procedures.
(§2) Cells were then incubated with antibodies to VCAM-1, E-selectin, or ICAM-1 diluted 1:400 in PBS containing 5% FCS at 37° C. for 30 min. Wells were washed two times with PBS, then incubated with horseradish peroxidase (HRP)-conjugated goat anti-mouse IgG (Southern Biotechnology Associates, Birmingham, Ala., USA) in PBS/5% FCS at 37° C. for 30 min. The wells were washed four times with PBS, then incubated with H2O2/3,3′,5,5′-tetramethyl-benzidine peroxidase substrate (Pierce Chemical, Rockford, Ill., USA) for 30 min in the dark. The reaction was stopped by adding 25 μl of 8 N H2SO4, and the plates read on a microplate reader, blanking on wells stained with only secondary antibody. Each assay was performed in triplicate and the data are reported as the mean±SEM as a percentage of the expression level of the vehicle. To study the effect of cholesterol ozonation product 5a concentration (5-50 μM) on E-selectin expression, the assay was performed in an identical fashion as described above, with each point being the mean±SEM of at least duplicate measurements.

ICAM-1 (CD54) = assay: Endothelial adhesion molecule expression by ELISA, ICAM-1; format: cell-based, human
Method: as §1, §2

U-937 monocytes cells = assay: Monocyte adhesion to endothelial cell monolayers by fluorescence spectroscopy; format: cell-based; settings: alone or in complex with LDL
THP-1 monocytes = assay: Monocyte morphology changes (differentiation into macrophages); format: cell-based, human; settings: 12.5 or 25 μM, up to 7 days
Method: THP-1 monocytes in suspension were plated in 8-well chambered slides. […] Media containing appropriate treatment compounds was replaced after 4 days. After 4 days treatment, morphologic changes of the adherent cells were assessed by phase-contrast microscopy and photographed using an Olympus Microfire digital camera.

[2] = Aldolization of ketoaldehyde 4a with amino acids (1H NMR); format: physicochemical; settings: DMSO-d6 (800 μl) and D2O (80 μl) without amino acid
Method: Aldolization of ketoaldehyde 4a with amino acids. […] To this solution was added 1 equivalent of either: a) L-proline, b) glycine, c) L-lysine hydrochloride or d) L-lysine ethyl ester dihydrochloride. At time points the samples were analyzed by ^1H NMR.

LDL / apoB-100 = LDL / apoB-100 (Homo sapiens, UniProt P04114); assay: Circular dichroism of LDL secondary structure; settings: LDL 100 μg/ml with 10 μM compound, PBS pH 7.4, 37° C., up to 48 h; normal LDL ~40±2%
LDL / apoB-100, sequence (P04114 28-4563): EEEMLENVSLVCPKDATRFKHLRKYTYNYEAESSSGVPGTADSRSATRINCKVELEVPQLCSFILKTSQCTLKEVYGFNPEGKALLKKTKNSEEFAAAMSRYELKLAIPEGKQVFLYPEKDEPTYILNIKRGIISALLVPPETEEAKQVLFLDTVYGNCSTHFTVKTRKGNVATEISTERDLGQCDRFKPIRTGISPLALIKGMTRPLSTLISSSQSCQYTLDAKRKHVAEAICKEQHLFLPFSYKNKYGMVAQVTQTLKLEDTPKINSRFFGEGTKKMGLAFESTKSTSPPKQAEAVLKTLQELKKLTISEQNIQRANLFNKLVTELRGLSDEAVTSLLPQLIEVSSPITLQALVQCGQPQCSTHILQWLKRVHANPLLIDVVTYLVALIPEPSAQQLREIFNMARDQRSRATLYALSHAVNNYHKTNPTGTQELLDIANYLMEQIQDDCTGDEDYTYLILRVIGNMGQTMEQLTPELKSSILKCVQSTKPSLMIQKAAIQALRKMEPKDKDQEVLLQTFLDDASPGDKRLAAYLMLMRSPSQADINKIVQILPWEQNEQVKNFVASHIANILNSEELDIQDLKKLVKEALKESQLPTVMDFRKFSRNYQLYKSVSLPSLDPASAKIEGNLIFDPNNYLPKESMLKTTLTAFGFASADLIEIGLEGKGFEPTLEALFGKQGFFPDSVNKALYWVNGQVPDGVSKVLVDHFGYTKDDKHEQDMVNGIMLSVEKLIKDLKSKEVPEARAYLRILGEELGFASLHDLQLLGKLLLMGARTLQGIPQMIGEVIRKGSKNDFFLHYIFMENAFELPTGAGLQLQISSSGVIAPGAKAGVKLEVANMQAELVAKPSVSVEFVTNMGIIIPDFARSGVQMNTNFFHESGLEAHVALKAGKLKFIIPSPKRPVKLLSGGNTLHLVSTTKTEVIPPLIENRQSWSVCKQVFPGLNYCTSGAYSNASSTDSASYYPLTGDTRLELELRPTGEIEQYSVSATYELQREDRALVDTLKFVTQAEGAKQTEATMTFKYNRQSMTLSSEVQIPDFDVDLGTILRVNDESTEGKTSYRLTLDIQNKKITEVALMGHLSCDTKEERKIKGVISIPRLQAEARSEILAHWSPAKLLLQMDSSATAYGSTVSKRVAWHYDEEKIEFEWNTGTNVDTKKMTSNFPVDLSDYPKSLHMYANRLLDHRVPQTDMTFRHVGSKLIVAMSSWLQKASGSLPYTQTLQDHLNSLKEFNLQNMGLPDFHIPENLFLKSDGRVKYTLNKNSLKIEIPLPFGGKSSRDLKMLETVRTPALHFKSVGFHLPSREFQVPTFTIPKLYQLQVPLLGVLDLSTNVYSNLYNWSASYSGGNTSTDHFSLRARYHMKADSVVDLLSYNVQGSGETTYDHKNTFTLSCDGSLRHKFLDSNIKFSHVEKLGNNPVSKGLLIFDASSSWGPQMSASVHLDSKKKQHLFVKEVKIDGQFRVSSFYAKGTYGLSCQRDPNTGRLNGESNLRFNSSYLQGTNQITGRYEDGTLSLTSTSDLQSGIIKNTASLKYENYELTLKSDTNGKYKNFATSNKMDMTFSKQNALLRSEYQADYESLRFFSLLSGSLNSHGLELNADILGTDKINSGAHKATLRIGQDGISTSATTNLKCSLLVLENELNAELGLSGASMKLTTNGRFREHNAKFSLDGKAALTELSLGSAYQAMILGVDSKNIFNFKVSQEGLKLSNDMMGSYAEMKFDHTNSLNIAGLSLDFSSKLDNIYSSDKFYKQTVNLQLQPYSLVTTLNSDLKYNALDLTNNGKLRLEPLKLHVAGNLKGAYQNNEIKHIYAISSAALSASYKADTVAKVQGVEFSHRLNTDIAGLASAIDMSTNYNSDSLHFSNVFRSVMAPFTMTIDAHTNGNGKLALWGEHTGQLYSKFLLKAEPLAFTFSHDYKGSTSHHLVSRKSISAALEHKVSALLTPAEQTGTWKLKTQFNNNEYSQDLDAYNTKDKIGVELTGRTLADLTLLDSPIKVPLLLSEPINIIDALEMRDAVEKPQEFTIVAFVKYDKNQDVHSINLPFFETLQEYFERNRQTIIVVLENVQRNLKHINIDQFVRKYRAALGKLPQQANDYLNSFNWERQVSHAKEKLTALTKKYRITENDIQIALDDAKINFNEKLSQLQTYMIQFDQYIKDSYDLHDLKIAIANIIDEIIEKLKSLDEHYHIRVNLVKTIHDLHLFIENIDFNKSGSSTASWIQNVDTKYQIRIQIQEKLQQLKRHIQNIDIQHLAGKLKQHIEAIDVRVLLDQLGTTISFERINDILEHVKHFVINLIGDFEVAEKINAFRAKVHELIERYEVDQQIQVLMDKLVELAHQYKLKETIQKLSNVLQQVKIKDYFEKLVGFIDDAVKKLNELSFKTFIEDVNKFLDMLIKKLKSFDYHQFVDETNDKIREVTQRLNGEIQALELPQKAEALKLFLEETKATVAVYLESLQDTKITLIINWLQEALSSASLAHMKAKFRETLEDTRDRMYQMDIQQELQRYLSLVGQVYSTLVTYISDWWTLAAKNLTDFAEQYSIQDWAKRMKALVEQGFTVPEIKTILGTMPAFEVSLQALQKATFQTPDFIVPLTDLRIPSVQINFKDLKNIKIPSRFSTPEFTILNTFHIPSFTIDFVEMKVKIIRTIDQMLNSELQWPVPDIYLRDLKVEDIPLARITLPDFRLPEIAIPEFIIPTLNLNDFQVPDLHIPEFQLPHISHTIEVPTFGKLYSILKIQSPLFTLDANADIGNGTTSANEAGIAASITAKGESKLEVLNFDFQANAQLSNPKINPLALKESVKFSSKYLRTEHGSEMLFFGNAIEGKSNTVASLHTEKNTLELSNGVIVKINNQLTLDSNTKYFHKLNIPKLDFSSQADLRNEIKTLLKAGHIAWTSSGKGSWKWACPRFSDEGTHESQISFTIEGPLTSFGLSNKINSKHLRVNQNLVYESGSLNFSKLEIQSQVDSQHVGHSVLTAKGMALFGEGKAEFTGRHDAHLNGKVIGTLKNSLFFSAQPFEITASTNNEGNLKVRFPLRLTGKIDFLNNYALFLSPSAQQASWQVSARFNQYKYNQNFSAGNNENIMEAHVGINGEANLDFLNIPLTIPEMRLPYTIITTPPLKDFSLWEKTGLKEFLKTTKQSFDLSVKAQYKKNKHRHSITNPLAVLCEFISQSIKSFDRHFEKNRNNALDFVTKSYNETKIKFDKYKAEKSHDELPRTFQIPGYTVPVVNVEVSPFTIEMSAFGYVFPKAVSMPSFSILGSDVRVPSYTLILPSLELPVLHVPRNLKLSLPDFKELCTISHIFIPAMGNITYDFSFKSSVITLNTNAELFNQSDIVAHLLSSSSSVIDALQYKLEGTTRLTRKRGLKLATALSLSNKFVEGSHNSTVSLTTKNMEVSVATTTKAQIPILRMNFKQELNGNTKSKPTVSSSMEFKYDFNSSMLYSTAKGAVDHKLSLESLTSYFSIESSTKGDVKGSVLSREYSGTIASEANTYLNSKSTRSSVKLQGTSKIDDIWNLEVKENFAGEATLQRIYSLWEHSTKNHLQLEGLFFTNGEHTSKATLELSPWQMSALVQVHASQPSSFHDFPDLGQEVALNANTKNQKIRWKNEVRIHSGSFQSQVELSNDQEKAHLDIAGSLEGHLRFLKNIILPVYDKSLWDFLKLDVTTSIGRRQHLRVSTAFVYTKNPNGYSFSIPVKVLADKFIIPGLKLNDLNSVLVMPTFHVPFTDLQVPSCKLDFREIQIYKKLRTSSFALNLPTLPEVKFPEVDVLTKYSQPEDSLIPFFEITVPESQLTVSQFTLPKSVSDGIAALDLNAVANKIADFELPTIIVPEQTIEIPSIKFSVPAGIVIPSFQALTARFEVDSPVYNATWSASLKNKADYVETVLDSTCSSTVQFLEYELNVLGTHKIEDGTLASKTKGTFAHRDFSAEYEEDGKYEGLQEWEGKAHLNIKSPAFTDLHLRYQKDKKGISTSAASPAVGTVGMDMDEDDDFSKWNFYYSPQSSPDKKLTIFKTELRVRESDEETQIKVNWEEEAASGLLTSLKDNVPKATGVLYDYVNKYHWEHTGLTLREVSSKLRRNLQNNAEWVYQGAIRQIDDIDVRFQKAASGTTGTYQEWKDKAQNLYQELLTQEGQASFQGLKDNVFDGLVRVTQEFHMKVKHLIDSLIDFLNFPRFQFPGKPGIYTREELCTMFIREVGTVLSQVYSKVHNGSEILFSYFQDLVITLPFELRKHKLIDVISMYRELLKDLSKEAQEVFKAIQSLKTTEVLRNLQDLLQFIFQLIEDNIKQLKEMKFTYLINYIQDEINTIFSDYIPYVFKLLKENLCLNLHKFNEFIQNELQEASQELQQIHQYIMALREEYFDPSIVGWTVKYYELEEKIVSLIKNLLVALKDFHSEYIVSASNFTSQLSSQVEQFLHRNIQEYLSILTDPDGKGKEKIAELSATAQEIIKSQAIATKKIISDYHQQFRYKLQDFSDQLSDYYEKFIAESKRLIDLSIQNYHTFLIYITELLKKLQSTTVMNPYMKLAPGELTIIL
Method: Spectra were recorded in the peptidic range (200-260 nm). To increase the signal-to-noise ratio, multiple spectra (three) were averaged for each measurement. The deconvolution of the molar elipticity spectra for each measurement was performed using the CDPro suite of software (by Narasimha Sreerama from Colorado State University) on a Dell PC.

[3] = HAAE-1, 25 μM compound in the presence of LDL, 4 h

CC(C)CCC[C@@H](C)[C@H]1CCC2C(CC=O)C([C@@]3(C)CC[C@H](O)CC3=O)CC[C@@]21C (stereo partly shown) [4a, 3βHydroxy-5-oxo-5,6-secocholestan-6-al]
CD36 expression (CD36; J774A.1, 25 μM compound complexed with LDL (100 μg/ml protein), 6 h): little or no effect | CD36 expression (CD36; cultured macrophages, compound in the absence of LDL): did not increase expression of either receptor | recruitment (migration) of macrophages ([1]; 0-25 μM, 4 h, P<0.001): dose-dependent recruitment of macrophages | migration of macrophages ([1]; compound co-incubated with BSA): macrophage migration still occurs | migration of macrophages ([1]; compound complexed with native LDL (100 μg/ml)): no significant migration | VCAM-1 levels (VCAM-1 (CD106); [3]): remain unchanged | integrin expression (VCAM-1) (VCAM-1 (CD106); HAAE-1, not complexed with LDL): no effects | ICAM-1 levels (ICAM-1 (CD54); [3]): remain unchanged | integrin expression (ICAM-1) (ICAM-1 (CD54); HAAE-1, not complexed with LDL): no effects | adhesion of U-937 monocytes to endothelial cell monolayers, above that of LDL alone (U-937 monocytes cells): neither ozonolysis product 4a nor 5a, alone or in complex with LDL, nor CuOx-LDL significantly increased adhesion | THP-1 monocyte differentiation into macrophages (adherence, morphology) (THP-1 monocytes): neither became adherent nor developed the aforementioned morphological changes | aldolization of 4a [2]: no aldolization | a helical structure of LDL (LDL / apoB-100): ~23±5%
